Source: patent publication US7371766B2, “Curcumin analogs with anti-tumor and anti-angiogenic properties” (Emory University, priority 1999, dated 2008)
Like-named read-outs stand apart in the source and are kept apart here.

Tests used:
[1] = tested on: HL-60 (TB); test: cells; settings: Homo sapiens, HL-60, 48 h; for GI50: read-out: Median Growth Inhibitory Concentration (GI50); for CC50: read-out: Median Lethal Concentration (LC50)
[2] = tested on: K-562; test: cells; settings: Homo sapiens, K562, 48 h; for GI50: read-out: Median Growth Inhibitory Concentration (GI50); for CC50: read-out: Median Lethal Concentration (LC50)
[3] = tested on: RPMI-8226; test: cells; settings: Homo sapiens, RPMI-8226, 48 h; for GI50: read-out: Median Growth Inhibitory Concentration (GI50)
[4] = tested on: SR; test: cells; settings: Homo sapiens, 48 h; for GI50: read-out: Median Growth Inhibitory Concentration (GI50); for CC50: read-out: Median Lethal Concentration (LC50)
[5] = tested on: EKVX; test: cells; settings: Homo sapiens, 48 h; for GI50: read-out: Median Growth Inhibitory Concentration (GI50); for CC50: read-out: Median Lethal Concentration (LC50)
[6] = tested on: NCI-H23; test: cells; settings: Homo sapiens, NCI-H23, 48 h; for GI50: read-out: Median Growth Inhibitory Concentration (GI50); for CC50: read-out: Median Lethal Concentration (LC50)
[7] = tested on: HCT-116; test: cells; settings: Homo sapiens, HCT-116, 48 h; for GI50: read-out: Median Growth Inhibitory Concentration (GI50); for CC50: read-out: Median Lethal Concentration (LC50)
[8] = tested on: HT29; test: cells; settings: Homo sapiens, HT-29, 48 h; for GI50: read-out: Median Growth Inhibitory Concentration (GI50); for CC50: read-out: Median Lethal Concentration (LC50)
[9] = tested on: SW-620; test: cells; settings: Homo sapiens, SW-620, 48 h; for GI50: read-out: Median Growth Inhibitory Concentration (GI50); for CC50: read-out: Median Lethal Concentration (LC50)
[10] = tested on: SF-295; test: cells; settings: Homo sapiens, SF-295, 48 h; for GI50: read-out: Median Growth Inhibitory Concentration (GI50); for CC50: read-out: Median Lethal Concentration (LC50)
[11] = tested on: SF-539; test: cells; settings: Homo sapiens, SF-539, 48 h; for GI50: read-out: Median Growth Inhibitory Concentration (GI50); for CC50: read-out: Median Lethal Concentration (LC50)
[12] = tested on: U251; test: cells; settings: Homo sapiens, U-251, 48 h; for GI50: read-out: Median Growth Inhibitory Concentration (GI50); for CC50: read-out: Median Lethal Concentration (LC50)
[13] = tested on: MALME-3M; test: cells; settings: Homo sapiens, 48 h; for GI50: read-out: Median Growth Inhibitory Concentration (GI50); for CC50: read-out: Median Lethal Concentration (LC50)
[14] = tested on: M14; test: cells; settings: Homo sapiens, M14, 48 h; for GI50: read-out: Median Growth Inhibitory Concentration (GI50); for CC50: read-out: Median Lethal Concentration (LC50)
[15] = tested on: SK-MEL-2; test: cells; settings: Homo sapiens, SK-MEL-2, 48 h; for GI50: read-out: Median Growth Inhibitory Concentration (GI50); for CC50: read-out: Median Lethal Concentration (LC50)
[16] = tested on: SK-MEL-5; test: cells; settings: Homo sapiens, SK-MEL-5, 48 h; for GI50: read-out: Median Growth Inhibitory Concentration (GI50)
[17] = tested on: UACC-62; test: cells; settings: Homo sapiens, UACC-62, 48 h; for GI50: read-out: Median Growth Inhibitory Concentration (GI50); for CC50: read-out: Median Lethal Concentration (LC50)
[18] = tested on: IGROV1; test: cells; settings: Homo sapiens, IGROV-1, 48 h; for GI50: read-out: Median Growth Inhibitory Concentration (GI50); for CC50: read-out: Median Lethal Concentration (LC50)
[19] = tested on: OVCAR-4; test: cells; settings: Homo sapiens, OVCAR-4, 48 h; for GI50: read-out: Median Growth Inhibitory Concentration (GI50); for CC50: read-out: Median Lethal Concentration (LC50)
[20] = tested on: OVCAR-5; test: cells; settings: Homo sapiens, OVCAR-5, 48 h; for GI50: read-out: Median Growth Inhibitory Concentration (GI50); for CC50: read-out: Median Lethal Concentration (LC50)
[21] = tested on: OVCAR-8; test: cells; settings: Homo sapiens, OVCAR-8, 48 h; for GI50: read-out: Median Growth Inhibitory Concentration (GI50); for CC50: read-out: Median Lethal Concentration (LC50)
[22] = tested on: A498; test: cells; settings: Homo sapiens, A498, 48 h; for GI50: read-out: Median Growth Inhibitory Concentration (GI50); for CC50: read-out: Median Lethal Concentration (LC50)
[23] = tested on: TK-10; test: cells; settings: Homo sapiens, TK-10, 48 h; for GI50: read-out: Median Growth Inhibitory Concentration (GI50); for CC50: read-out: Median Lethal Concentration (LC50)
[24] = tested on: DU-145; test: cells; settings: Homo sapiens, DU-145, 48 h; for GI50: read-out: Median Growth Inhibitory Concentration (GI50); for CC50: read-out: Median Lethal Concentration (LC50)
[25] = tested on: HS 578T; test: cells; settings: Homo sapiens, 48 h; for GI50: read-out: Median Growth Inhibitory Concentration (GI50); for CC50: read-out: Median Lethal Concentration (LC50)
[26] = tested on: MDA-MB-435; test: cells; settings: Homo sapiens, MDA-MB-435, 48 h; for GI50: read-out: Median Growth Inhibitory Concentration (GI50); for CC50: read-out: Median Lethal Concentration (LC50)
[27] = tested on: MDA-N; test: cells; settings: Homo sapiens, 48 h; for GI50: read-out: Median Growth Inhibitory Concentration (GI50); for CC50: read-out: Median Lethal Concentration (LC50)
[28] = tested on: BT-549; test: cells; settings: Homo sapiens, BT-549, 48 h; for GI50: read-out: Median Growth Inhibitory Concentration (GI50); for CC50: read-out: Median Lethal Concentration (LC50)
[29] = tested on: Sixty human tumor cell lines; test: cells; settings: 48 h; for GI50: read-out: Median Growth Inhibitory Concentration (GI50), Mean; for CC50: read-out: Median Lethal Concentration (LC50), Mean
[30] = tested on: RPMI-7951 human melanoma; test: Neutral Red Assay, cell viability, RPMI-7951; settings: Homo sapiens
Protocol: RPMI-795 1, MDA-MB-231 and MDA-MB-435 cell lines were cultured in MEM-alpha medium (GIBCO-BRL, Long Island, N.Y.) containing 10% fetal bovine serum (RPMI-7951, MDA-MB-231) or 5% FBS (MDA-MB-435) at 37° C. and under 5% CO2/95% air. […] The cells were cultured in 48 well plates in all of the experiments described.
Neutral Red Assay was utilized to determine the effect of the compounds of the present invention on cell viability. Neutral Red was purchased from GIBCO-BRL (Long Island, N.Y.). Cells were plated at a concentration of 20,000 cells/well and cultured overnight. Compounds or vehicle (DMSO 0.1%) were then added and the plates were incubated for 72 hours. Supernatant from each well was either aspirated or collected and media containing Neutral Red (GIBCO-BRL, Long Island, N.Y.) at a concentration of 15 μl/ml was then added to each well. The plates were then incubated at 37° C. for 30 minutes. Next, the cells were washed with twice with PBS and alcoholic-HCl (0.5N—HCl/35% ethanol) was added to each well. The plates were then placed on a plate shaker until all residues were solubilized (pink color). The solubilized mixtures were then transferred to a 96 well plate and the absorbances were read on a micro-test plate reader at a wavelength of 570 nm.
Cell viability was determined by Neutral Red Assay.

[31] = RPMI-7951, 72 h, read-out: Neutral Red Uptake, %
[32] = RPMI-7951, read-out: Cell Viability
[33] = read-out: Median Lethal Concentration (LC50)

`O=C1C(=Cc2ccccc2O)CCCC1=Cc1ccccc1O` [EF4, 2,6Bis(2-hydroxybenzylidene)cyclohexanone] gave a GI50 [1] of 1.9 µM, a CC50 [1] of 53.5 µM and a GI50 [2] of 2.5 µM. The CC50 [2] was 91.4 µM, the GI50 [3] was 0.6 µM and the GI50 [4] was 1.6 µM. It also gave a CC50 [4] greater than 100 µM, a GI50 [5] of 2.3 µM and a CC50 [5] of 37.2 µM. For the same molecule, the GI50 [6] was 1.8 µM, the CC50 [6] was 9.4 µM and the GI50 [7] was 2.2 µM. It also gave a CC50 [7] of 13.2 µM, a GI50 [8] of 2.2 µM and a CC50 [8] of 29.1 µM. The GI50 [9] was 2.7 µM, the CC50 [9] was 76.3 µM and the GI50 [10] was 3.4 µM. The CC50 [10] was 79.5 µM, the GI50 [11] was 2 µM and the CC50 [11] was 24.7 µM. It also gave a GI50 [12] of 2 µM, a CC50 [12] of 18.5 µM and a GI50 [13] of 2.3 µM. It also gave a CC50 [13] of 24.3 µM, a GI50 [14] of 1.9 µM and a CC50 [14] of 13.2 µM. For the same molecule, the GI50 [15] was 2.4 µM, the CC50 [15] was 25.3 µM and the GI50 [16] was 1.6 µM. For the same molecule, the GI50 [17] was 1.5 µM, the CC50 [17] was 6.1 µM and the GI50 [18] was 2.9 µM. The CC50 [18] was 43.9 µM, the GI50 [19] was 2.5 µM and the CC50 [19] was 18.4 µM. It also gave a GI50 [20] of 2.6 µM, a CC50 [20] of 55.9 µM and a GI50 [21] of 2.9 µM. It also gave a CC50 [21] greater than 100 µM, a GI50 [22] of 2.2 µM and a CC50 [22] of 16.2 µM. For the same molecule, the GI50 [23] was 3 µM, the CC50 [23] was 22.6 µM and the GI50 [24] was 1.4 µM. For the same molecule, the CC50 [24] was 7 µM, the GI50 [25] was 5.1 µM and the CC50 [25] was greater than 100 µM. The GI50 [26] was 1.8 µM, the CC50 [26] was 8 µM and the GI50 [27] was 1.6 µM. For the same molecule, the CC50 [27] was 20.2 µM, the GI50 [28] was 2.4 µM and the CC50 [28] was 26.1 µM. For the same molecule, the GI50 [29] was 2.4 µM, the CC50 [29] was 33.9 µM and the viability at 5 µM [30, 31] was 98%. The viability at 20 µM [30, 31] was 4%, the viability at 5 µM [30, 32] was 102% and the viability at 20 µM [30, 32] was 38%.

For `CC1(/C=C/c2ccccc2O)C=Cc2ccccc2O1` (centres unmarked) [EF7], the GI50 [1] was 17.7 µM, the CC50 [1] was 76 µM and the GI50 [2] was 14.9 µM. The CC50 [2] was 70.7 µM, the GI50 [3] was 14.8 µM and the CC50 [3, 33] was 92.7 µM. The GI50 [4] was 15.2 µM, the CC50 [4] was 76.8 µM and the GI50 [5] was 17.3 µM. For the same molecule, the CC50 [5] was 56.6 µM, the GI50 [6] was 17.6 µM and the CC50 [6] was 62.9 µM. The GI50 [7] was 17.6 µM, the CC50 [7] was 57.6 µM and the GI50 [8] was 17.8 µM. For the same molecule, the CC50 [8] was 60.6 µM, the GI50 [9] was 16.2 µM and the CC50 [9] was 65.9 µM. It also gave a GI50 [10] of 15.5 µM, a CC50 [10] of 55.1 µM and a GI50 [11] of 17.3 µM. It also gave a CC50 [11] of 55.7 µM, a GI50 [12] of 16.1 µM and a CC50 [12] of 54.4 µM. For the same molecule, the GI50 [13] was 17.5 µM, the CC50 [13] was 68.8 µM and the GI50 [14] was 15.7 µM. It also gave a CC50 [14] of 54 µM, a GI50 [15] of 16.8 µM and a CC50 [15] of 57 µM. For the same molecule, the GI50 [16] was 15.5 µM, the CC50 [16, 33] was 53.7 µM and the GI50 [17] was 12.2 µM. The CC50 [17] was 49.6 µM, the GI50 [18] was 15.9 µM and the CC50 [18] was 60.9 µM. For the same molecule, the GI50 [19] was 14.1 µM, the CC50 [19] was 53.1 µM and the GI50 [20] was 16.7 µM. It also gave a CC50 [20] of 58.4 µM, a GI50 [21] of 17 µM and a CC50 [21] of 86.4 µM. It also gave a GI50 [22] of 17.2 µM, a CC50 [22] of 55.6 µM and a GI50 [23] of 17.4 µM. For the same molecule, the CC50 [23] was 55.9 µM, the GI50 [24] was 16.4 µM and the CC50 [24] was 54.8 µM. It also gave a GI50 [25] of 22.4 µM, a CC50 [25] greater than 100 µM and a GI50 [26] of 17.5 µM. For the same molecule, the CC50 [26] was 56 µM, the GI50 [27] was 16.1 µM and the CC50 [27] was 56.9 µM. For the same molecule, the GI50 [28] was 17.1 µM, the CC50 [28] was 56.8 µM and the GI50 [29] was 15.8 µM. The CC50 [29] was 61.7 µM and the viability at 20 µM [30, 32] was 78%.
